Source: US8198273B2, “Compounds and methods for kinase modulation, and indications therefor” (Plexxikon Inc., priority 2009, dated 2012)

Tests used:
CYP3A4(BQ) = CYP3A4(BQ) (Homo sapiens, UniProt P08684); assay: CYP3A4(BQ) inhibition (fluorescent substrate); assay type: in vitro ADME; settings: read-out: Cyp IC50 3A4(BQ)
In short: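 Inhibition was followed as loss of fluorescent metabolite from a known substrate, with compound in co-factor mix as a 10-point 1:1 serial dilution (100 mM DMSO stock).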

[1] = tested on: SW620 colon adenocarcinoma cells (wild-type B-RAF); assay: SW620 cell growth inhibition (ATPlite); assay type: cell-based; settings: Homo sapiens, SW-620, 72 h; SW620, 3 days incubation
In short: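 Cells plated overnight, then exposed 3 days at 37° C to 8-point 1:3 compound dilutions topping at 10 μM final. Viability read as ATPlite luminescence, proportional to cell number; IC50 from luminescence versus concentration.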

c-Raf-1 = c-Raf-1 (Homo sapiens, UniProt P04049); assay: c-Raf-1 biochemical kinase inhibition (AlphaScreen, biotin-MEK1 substrate); settings: 100 μM ATP
In short: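 IC50 derived from AlphaScreen signal plotted against compound concentration. Final ATP 100 μM; 3 h incubation at room temperature. Eight-point 3-fold dilution series prepared from a 0.1 mM DMSO stock.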

Chain of CYP3A4(BQ) (P08684 whole entry): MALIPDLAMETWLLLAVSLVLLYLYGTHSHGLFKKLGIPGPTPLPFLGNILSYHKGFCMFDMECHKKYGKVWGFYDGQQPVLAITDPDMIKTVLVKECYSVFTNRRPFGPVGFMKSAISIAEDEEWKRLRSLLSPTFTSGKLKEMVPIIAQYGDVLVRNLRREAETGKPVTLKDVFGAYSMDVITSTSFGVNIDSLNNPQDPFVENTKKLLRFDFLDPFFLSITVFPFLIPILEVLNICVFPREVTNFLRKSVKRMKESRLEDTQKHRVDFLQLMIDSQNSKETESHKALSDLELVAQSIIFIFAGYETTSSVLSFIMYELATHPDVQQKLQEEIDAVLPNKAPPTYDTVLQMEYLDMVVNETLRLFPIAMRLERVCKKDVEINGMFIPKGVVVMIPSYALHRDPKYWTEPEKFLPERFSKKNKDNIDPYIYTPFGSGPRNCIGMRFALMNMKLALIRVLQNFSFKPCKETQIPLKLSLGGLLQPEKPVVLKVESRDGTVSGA
Chain of c-Raf-1 (P04049 whole entry): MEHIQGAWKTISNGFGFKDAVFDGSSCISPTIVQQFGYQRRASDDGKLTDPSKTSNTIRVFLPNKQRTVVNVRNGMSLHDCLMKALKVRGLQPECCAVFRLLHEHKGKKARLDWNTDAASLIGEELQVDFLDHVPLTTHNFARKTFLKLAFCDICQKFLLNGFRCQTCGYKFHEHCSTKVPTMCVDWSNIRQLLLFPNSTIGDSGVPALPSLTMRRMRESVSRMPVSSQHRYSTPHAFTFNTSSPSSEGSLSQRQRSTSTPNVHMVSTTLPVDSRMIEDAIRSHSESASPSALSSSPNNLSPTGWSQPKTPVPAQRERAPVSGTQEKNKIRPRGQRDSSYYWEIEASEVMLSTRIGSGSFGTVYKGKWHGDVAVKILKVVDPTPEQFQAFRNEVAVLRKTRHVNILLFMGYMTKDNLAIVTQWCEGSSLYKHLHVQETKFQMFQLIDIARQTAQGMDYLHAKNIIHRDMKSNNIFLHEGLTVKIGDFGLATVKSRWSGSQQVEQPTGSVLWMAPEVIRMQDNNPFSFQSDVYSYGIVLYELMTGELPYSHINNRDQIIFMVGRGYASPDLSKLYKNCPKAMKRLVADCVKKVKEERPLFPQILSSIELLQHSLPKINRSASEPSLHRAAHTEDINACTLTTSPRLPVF

IC50 (CYP3A4(BQ)) [µM]	IC50 [1] [µM]	IC50 (c-Raf-1) [nM]	SMILES
> 10	< 5	< 10	N#Cc1cnc2[nH]cc(C(=O)c3c(F)ccc(NS(=O)(=O)c4ccccc4)c3F)c2c1 [P-2046, N-[3-(5-Cyano-1H-pyrrolo[2,3-b]pyridine-3-carbonyl)-2,4-difluoro-phenyl]-benzenesulfonamide]
> 10	> 10	< 10	CCCS(=O)(=O)Nc1ccc(F)c(C(=O)c2c[nH]c3ncc(-c4ccc(OCCN5CCOCC5)nc4)cc23)c1F [P-2232, Propane-1-sulfonic acid (2,4-difluoro-3-{5-[6-(2-morpholin-4-yl-ethoxy)-pyridin-3-yl]-1H-pyrrolo[2,3-b]pyridine-3-carbonyl}-phenyl)-amide]
5 to 10	> 10	< 10	CCCS(=O)(=O)Nc1ccc(F)c(C(=O)c2c[nH]c3ncc(C#CCOC)cc23)c1F [P-2239, Propane-1-sulfonic acid {2,4-difluoro-3-[5-(3-methoxy-prop-1-ynyl)-1H-pyrrolo[2,3-b]pyridine-3-carbonyl]-phenyl}-amide]
> 10	> 10	< 100	CCCS(=O)(=O)Nc1ccc(F)c(C(=O)c2c[nH]c3ncc(-c4ccc(CCCOC)nc4)cc23)c1F [P-2226, Propane-1-sulfonic acid (2,4-difluoro-3-{5-[6-(3-methoxy-propyl)-pyridin-3-yl]-1H-pyrrolo[2,3-b]pyridine-3-carbonyl}-phenyl)-amide]
> 10	< 20	< 10	CCCS(=O)(=O)Nc1ccc(F)c(C(=O)c2c[nH]c3ncc(-c4ccc(C)nc4)cc23)c1F [P-2213, Propane-1-sulfonic acid {2,4-difluoro-3-[5-(6-methyl-pyridin-3-yl)-1H-pyrrolo[2,3-b]pyridine-3-carbonyl]-phenyl}-amide]
> 10	< 5	< 10	N#Cc1cnc2[nH]cc(C(=O)c3cccc(NS(=O)(=O)c4ccccc4)c3F)c2c1 [P-2056, N-[3-(5-Cyano-1H-pyrrolo[2,3-b]pyridine-3-carbonyl)-2-fluoro-phenyl]-benzenesulfonamide]
> 10	> 10	< 10	N#Cc1ccnc2[nH]cc(C(=O)c3c(F)ccc(NS(=O)(=O)c4ccccc4F)c3F)c12 [P-2020, N-[3-(4-Cyano-1H-pyrrolo[2,3-b]pyridine-3-carbonyl)-2,4-difluoro-phenyl]-2-fluoro-benzenesulfonamide]
5 to 10	> 10	< 10	N#Cc1ccnc2[nH]cc(C(=O)c3c(F)ccc(NS(=O)(=O)c4cccnc4)c3F)c12 [P-2077, Pyridine-3-sulfonic acid [3-(4-cyano-1H-pyrrolo[2,3-b]pyridine-3-carbonyl)-2,4-difluoro-phenyl]-amide]
< 5	> 10	< 10	CCCS(=O)(=O)Nc1ccc(F)c(C(=O)c2c[nH]c3ncc(-c4cncnc4)cc23)c1F [P-2162, Propane-1-sulfonic acid [2,4-difluoro-3-(5-pyrimidin-5-yl-1H-pyrrolo[2,3-b]pyridine-3-carbonyl)-phenyl]-amide]
5 to 10	> 10	< 10	CCCS(=O)(=O)Nc1ccc(F)c(C(=O)c2c[nH]c3ncc(-c4ccc(C#CCN(CC)CC)nc4)cc23)c1F [P-2222, Propane-1-sulfonic acid (3-{5-[6-(3-diethylamino-prop-1-ynyl)-pyridin-3-yl]-1H-pyrrolo[2,3-b]pyridine-3-carbonyl}-2,4-difluoro-phenyl)-amide]
< 5	> 10	< 10	CCCS(=O)(=O)Nc1ccc(F)c(C(=O)c2c[nH]c3ncc(-c4ccc(OCCCN(C)C)nc4)cc23)c1F [P-2178, Propane-1-sulfonic acid (3-{5-[6-(3-dimethylamino-propoxy)-pyridin-3-yl]-1H-pyrrolo[2,3-b]pyridine-3-carbonyl}-2,4-difluoro-phenyl)-amide]
> 10	> 10	< 10	CCCS(=O)(=O)Nc1ccc(F)c(C(=O)c2c[nH]c3ncc(-c4ccc(Cl)nc4)cc23)c1F [P-2154, Propane-1-sulfonic acid {3-[5-(6-chloro-pyridin-3-yl)-1H-pyrrolo[2,3-b]pyridine-3-carbonyl]-2,4-difluoro-phenyl}-amide]
> 10	> 10	< 10	COc1ccnc2[nH]cc(C(=O)c3c(F)ccc(NS(=O)(=O)c4ccccc4F)c3F)c12 [P-2021, N-[2,4-Difluoro-3-(4-methoxy-1H-pyrrolo[2,3-b]pyridine-3-carbonyl)-phenyl]-2-fluoro-benzenesulfonamide]
5 to 10	> 10	< 10	CCCS(=O)(=O)Nc1ccc(F)c(C(=O)c2c[nH]c3ncc(-c4ccc(OCCCN5CCOCC5)nc4)cc23)c1F [P-2236, Propane-1-sulfonic acid (2,4-difluoro-3-{5-[6-(3-morpholin-4-yl-propoxy)-pyridin-3-yl]-1H-pyrrolo[2,3-b]pyridine-3-carbonyl}-phenyl)-amide]
> 10	> 10	< 10	CCCS(=O)(=O)Nc1cccc(C(=O)c2c[nH]c3ncc(-c4cnc(OC)nc4)cc23)c1F [P-2407, Propane-1-sulfonic acid {2-fluoro-3-[5-(2-methoxy-pyrimidin-5-yl)-1H-pyrrolo[2,3-b]pyridine-3-carbonyl]-phenyl}-amide]
> 10	> 10	< 10	CCCS(=O)(=O)Nc1ccc(F)c(C(=O)c2c[nH]c3ncc(-c4cnc(C)nc4)cc23)c1F [P-2211, Propane-1-sulfonic acid {2,4-difluoro-3-[5-(2-methyl-pyrimidin-5-yl)-1H-pyrrolo[2,3-b]pyridine-3-carbonyl]-phenyl}-amide]
< 5	> 10	< 10	CCCS(=O)(=O)Nc1ccc(F)c(C(=O)c2c[nH]c3ncc(-c4cn[nH]c4)cc23)c1F [P-2174, Propane-1-sulfonic acid {2,4-difluoro-3-[5-(1H-pyrazol-4-yl)-1H-pyrrolo[2,3-b]pyridine-3-carbonyl]-phenyl}-amide]
–	> 10	< 10	COc1ccnc2[nH]cc(C(=O)c3c(F)ccc(NS(=O)(=O)c4cc(F)ccc4F)c3F)c12 [P-2022, N-[2,4-Difluoro-3-(4-methoxy-1H-pyrrolo[2,3-b]pyridine-3-carbonyl)-phenyl]-2,5-difluoro-benzenesulfonamide]
> 10	> 10	< 10	Cc1cnc2[nH]cc(C(=O)c3c(F)ccc(NS(=O)(=O)c4cc(F)ccc4F)c3F)c2c1 [P-2015, N-[2,4-Difluoro-3-(5-methyl-1H-pyrrolo[2,3-b]pyridine-3-carbonyl)-phenyl]-2,5-difluoro-benzenesulfonamide]
> 10	< 20	< 10	CCCS(=O)(=O)Nc1ccc(F)c(C(=O)c2c[nH]c3ncc(-c4ccc(N)nc4)cc23)c1F [P-2214, Propane-1-sulfonic acid {3-[5-(6-amino-pyridin-3-yl)-1H-pyrrolo[2,3-b]pyridine-3-carbonyl]-2,4-difluoro-phenyl}-amide]
> 10	> 10	< 10	CCCS(=O)(=O)Nc1ccc(F)c(C(=O)c2c[nH]c3ncc(-c4ccc(S(=O)(=O)N(C)C)cc4)cc23)c1F [P-2185, 4-{3-[2,6-Difluoro-3-(propane-1-sulfonylamino)-benzoyl]-1H-pyrrolo[2,3-b]pyridin-5-yl}-N,N-dimethyl-benzenesulfonamide]
–	> 10	< 100	CCCS(=O)(=O)Nc1ccc(F)c(C(=O)c2c[nH]c3ncc(-c4cnc(N5CCCC5)nc4)cc23)c1F [P-2219, Propane-1-sulfonic acid {2,4-difluoro-3-[5-(2-pyrrolidin-1-yl-pyrimidin-5-yl)-1H-pyrrolo[2,3-b]pyridine-3-carbonyl]-phenyl}-amide]
–	< 5	< 10	CCCS(=O)(=O)Nc1ccc(F)c(C(=O)c2c[nH]c3ncc(-c4ccc(S(=O)(=O)NC5CC5)cc4)cc23)c1F [P-2168, N-Cyclopropyl-4-{3-[2,6-difluoro-3-(propane-1-sulfonylamino)-benzoyl]-1H-pyrrolo[2,3-b]pyridin-5-yl}-benzenesulfonamide]
> 10	> 10	< 10	O=C(c1c(F)ccc(NS(=O)(=O)c2c(F)cccc2F)c1F)c1c[nH]c2nccc(Cl)c12 [P-2033, N-[3-(4-Chloro-1H-pyrrolo[2,3-b]pyridine-3-carbonyl)-2,4-difluoro-phenyl]-2,6-difluoro-benzenesulfonamide]
> 10	–	< 100	CCCS(=O)(=O)Nc1cccc(C(=O)c2c[nH]c3ncc(-c4cnc(N(C)C)nc4)cc23)c1F [P-2408, Propane-1-sulfonic acid {3-[5-(2-dimethylamino-pyrimidin-5-yl)-1H-pyrrolo[2,3-b]pyridine-3-carbonyl]-2-fluoro-phenyl}-amide]
< 5	–	< 10	Cc1cnc2[nH]cc(C(=O)c3c(F)ccc(NS(=O)(=O)c4cccnc4)c3F)c2c1 [P-2069, Pyridine-3-sulfonic acid [2,4-difluoro-3-(5-methyl-1H-pyrrolo[2,3-b]pyridine-3-carbonyl)-phenyl]-amide]
> 10	–	< 10	CCCS(=O)(=O)Nc1ccc(F)c(C(=O)c2c[nH]c3ncc(-c4ccc(C(=O)NCC)nc4)cc23)c1F [P-2151, 5-{3-[2,6-Difluoro-3-(propane-1-sulfonylamino)-benzoyl]-1H-pyrrolo[2,3-b]pyridin-5-yl}-pyridine-2-carboxylic acid ethylamide]
